According to PMC3058872 (Archives of biochemistry and biophysics, 2010):
pKd: −log10 of the molar value.

Experiments:
EI^Ntr (Enzyme I^Ntr) [1] = target: T1, EI^Ntr (Enzyme I^Ntr) (Escherichia coli, UniProt P37177, H356A); assay: thermal unfolding followed by Trp fluorescence; format: binding; details: hydrogenated protein, 150 μM PEP, 20 mM Tris-Cl pH 8, 2 mM MgCl2, scan 30 °C/h
EI^Ntr (Enzyme I^Ntr) [2] = target: T1, EI^Ntr (Enzyme I^Ntr); assay: intrinsic Trp fluorescence titration; format: binding

T1 sequence (P37177 170-748 H356A limits assumed): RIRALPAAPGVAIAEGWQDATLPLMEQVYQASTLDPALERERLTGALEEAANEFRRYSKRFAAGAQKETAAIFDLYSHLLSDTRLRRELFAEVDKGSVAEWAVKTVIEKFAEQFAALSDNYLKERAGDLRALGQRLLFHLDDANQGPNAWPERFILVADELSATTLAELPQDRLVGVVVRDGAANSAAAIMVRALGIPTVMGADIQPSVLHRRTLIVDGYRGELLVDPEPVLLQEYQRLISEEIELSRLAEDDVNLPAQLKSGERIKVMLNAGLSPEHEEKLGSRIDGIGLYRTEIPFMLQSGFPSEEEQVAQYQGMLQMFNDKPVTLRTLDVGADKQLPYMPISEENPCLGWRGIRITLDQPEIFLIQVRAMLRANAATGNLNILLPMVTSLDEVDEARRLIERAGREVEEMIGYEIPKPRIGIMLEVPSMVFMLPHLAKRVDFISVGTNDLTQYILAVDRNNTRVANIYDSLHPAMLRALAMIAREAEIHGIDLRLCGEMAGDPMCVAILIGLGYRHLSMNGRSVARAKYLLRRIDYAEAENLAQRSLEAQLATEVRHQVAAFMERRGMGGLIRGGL

stabilization due to PEP binding (dTm) (EI^Ntr (Enzyme I^Ntr) [1]): 4.04 °C | pKd (EI^Ntr (Enzyme I^Ntr) [2]): 4.68
Structure (SMILES): C=C(OP(=O)(O)O)C(=O)O [PEP]
